According to US7157241B2, “Serine protease genes related to DPPIV” (Ferring BV, priority 2000, dated 2007):
One block for each compound: values may come before it. Square brackets hold non-standard residues; d marks the D form. Peptide text beside a SMILES is read from it. * marks the point of attachment. Sta = CC(C)C[C@H](N)[C@@H](O)CC(=O)O; pNA = O=[N+]([O-])c1ccc(N*)cc1; AMC = Cc1cc(=O)oc2cc(N*)ccc12; Isovaleryl = CC(C)CC(=O)*

Tests used:
Format in all cases: biochemical
DPRP-2 [1] = biological target: T1, DPRP-2 (Homo sapiens, UniProt Q86TI2); assay: Inhibition of DPRP-2 by protease inhibitors (Ala-Pro-AMC fluorescence); conditions: for Residual activity (% of control) DPRP-2: preincubated 30 min at room temperature, Ala-Pro-AMC 100 μM
T1 construct: DNA fragments encoding the full length polypeptide DPRP-2 were amplified using PCR oligonucleotide primers; made in house; host or cells: PEAK or COS-1 cells, transient transfection
Description: (§1) The kinetic properties of recombinant DPRP-1 and DPRP-2 were determined in a continuous fluorimetric assay. Buffer, pH and temperature dependence optimization led to the following assay conditions: Enzyme assays were performed in 50 mM PBS, pH7.4 50 μl (50 μg/ml) of purified enzymes were mixed with 1 μl of different concentration of Ala-Pro-AMC (Enzyme Systems). Plates were then incubated at 37° C. for 30 min, and fluorescence was detected using a Wallac 1420 Fluorimeter with λex40355 and λem535.
(§2) The two purified proteases and DPPIV were preincubated with inhibitors at room temperature for 30 min. Substrate, Ala-Pro-AMC (100 μM), was then added, and the fluorescence intensity was recorded as 60 readings during a 60 min period.

DPRP-1 [2] = biological target: T2, DPRP-1 (Homo sapiens, UniProt Q6V1X1); assay: Inhibition of DPRP-1 by protease inhibitors (Ala-Pro-AMC fluorescence); conditions: for Residual activity (% of control) DPRP-1: preincubated 30 min at room temperature, Ala-Pro-AMC 100 μM
T2 construct: DNA fragments encoding the full-length polypeptide DPRP-1 were amplified using PCR oligonucleotide primers; made in house; host or cells: PEAK or COS-1 cells, transient transfection
Description: as §1, §2

DPPIV [3] = biological target: T3, DPPIV (Homo sapiens, UniProt P27487); assay: Inhibition of DPPIV by protease inhibitors (Ala-Pro-AMC fluorescence); conditions: for Residual activity (% of control) DPPIV: preincubated 30 min at room temperature, Ala-Pro-AMC 100 μM
Description: as §1, §2

DPRP-2 [4] = biological target: T1, DPRP-2; assay: Substrate specificity, DPRP-2; conditions: substrate 125 μM, 30-minute incubation with enzyme
Description: (§3) In addition to Ala-Pro-AMC, additional substrates tested also confirmed that DPRP-1 and DPRP-2 are dipeptidyl peptidases. The data were derived by determining the fluorescence change following a 30-minute incubation of the substrates (125 μM) with enzymes as a percentage of the fluorescence measured at Ala-Pro-AMC and Gly-Pro-AMC were the only good substrates among those tested.

DPRP-1 [5] = biological target: T2, DPRP-1; assay: Substrate specificity, DPRP-1; conditions: substrate 125 μM, 30-minute incubation with enzyme
Description: as §3

DPPIV [6] = biological target: T3, DPPIV; assay: Substrate specificity, DPPIV; conditions: substrate 125 μM, 30-minute incubation with enzyme
Description: as §3

DPRP-1 [7] = biological target: T2, DPRP-1; assay: Continuous fluorimetric assay, kinetic properties of recombinant DPRP-1; conditions: substrate Ala-Pro-AMC; 50 mM PBS, pH7.4, 37° C., 30 min
Description: as §1

DPRP-2 [8] = biological target: T1, DPRP-2; assay: Continuous fluorimetric assay, kinetic properties of recombinant DPRP-2; conditions: substrate Ala-Pro-AMC; 50 mM PBS, pH7.4, 37° C., 30 min
Description: as §1

[9] = protease inhibitor panel of Table 5

T2 sequence (Q6V1X1 17-898): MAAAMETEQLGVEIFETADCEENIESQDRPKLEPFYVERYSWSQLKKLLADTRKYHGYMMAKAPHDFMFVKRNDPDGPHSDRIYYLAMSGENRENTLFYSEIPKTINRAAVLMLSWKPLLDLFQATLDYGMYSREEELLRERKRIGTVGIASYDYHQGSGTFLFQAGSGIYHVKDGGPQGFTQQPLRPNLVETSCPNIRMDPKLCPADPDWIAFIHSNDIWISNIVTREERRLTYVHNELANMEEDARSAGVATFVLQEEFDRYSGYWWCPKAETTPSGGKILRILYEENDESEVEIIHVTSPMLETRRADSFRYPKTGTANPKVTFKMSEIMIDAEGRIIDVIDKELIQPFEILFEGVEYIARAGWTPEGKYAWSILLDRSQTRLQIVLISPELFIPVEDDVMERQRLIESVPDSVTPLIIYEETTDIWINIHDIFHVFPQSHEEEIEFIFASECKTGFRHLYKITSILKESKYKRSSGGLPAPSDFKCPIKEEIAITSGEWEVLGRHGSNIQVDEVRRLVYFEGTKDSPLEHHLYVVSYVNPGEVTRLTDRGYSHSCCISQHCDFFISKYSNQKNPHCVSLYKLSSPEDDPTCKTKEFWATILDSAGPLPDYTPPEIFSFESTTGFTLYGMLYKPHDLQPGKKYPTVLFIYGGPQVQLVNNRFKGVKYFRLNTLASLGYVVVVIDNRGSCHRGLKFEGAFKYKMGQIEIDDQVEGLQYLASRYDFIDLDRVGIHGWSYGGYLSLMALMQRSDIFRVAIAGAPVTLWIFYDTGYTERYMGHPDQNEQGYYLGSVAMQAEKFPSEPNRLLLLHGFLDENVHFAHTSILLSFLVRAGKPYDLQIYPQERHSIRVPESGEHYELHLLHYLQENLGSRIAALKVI
T3 sequence (P27487 whole entry): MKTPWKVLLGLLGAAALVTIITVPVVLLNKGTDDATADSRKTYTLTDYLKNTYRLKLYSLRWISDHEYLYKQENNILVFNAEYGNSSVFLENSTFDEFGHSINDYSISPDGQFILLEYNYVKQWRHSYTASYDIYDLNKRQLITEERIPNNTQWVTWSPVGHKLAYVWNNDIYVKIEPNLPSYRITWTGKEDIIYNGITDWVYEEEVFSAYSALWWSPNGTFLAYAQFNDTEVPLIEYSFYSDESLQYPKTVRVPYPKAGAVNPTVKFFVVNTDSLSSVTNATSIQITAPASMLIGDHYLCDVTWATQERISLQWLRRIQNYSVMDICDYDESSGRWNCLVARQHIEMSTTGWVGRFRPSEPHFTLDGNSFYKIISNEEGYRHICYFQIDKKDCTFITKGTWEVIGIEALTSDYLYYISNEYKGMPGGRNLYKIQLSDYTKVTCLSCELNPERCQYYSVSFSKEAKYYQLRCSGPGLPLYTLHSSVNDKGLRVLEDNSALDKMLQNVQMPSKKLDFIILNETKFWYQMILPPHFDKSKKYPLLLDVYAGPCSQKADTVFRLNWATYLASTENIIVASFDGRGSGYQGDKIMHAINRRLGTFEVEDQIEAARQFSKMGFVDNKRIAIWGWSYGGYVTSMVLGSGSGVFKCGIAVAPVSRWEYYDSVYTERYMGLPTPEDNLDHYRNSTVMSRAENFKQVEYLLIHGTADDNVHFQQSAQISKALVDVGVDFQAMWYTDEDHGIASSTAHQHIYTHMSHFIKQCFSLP
T1 sequence (Q86TI2 whole entry, the tested form may be a part): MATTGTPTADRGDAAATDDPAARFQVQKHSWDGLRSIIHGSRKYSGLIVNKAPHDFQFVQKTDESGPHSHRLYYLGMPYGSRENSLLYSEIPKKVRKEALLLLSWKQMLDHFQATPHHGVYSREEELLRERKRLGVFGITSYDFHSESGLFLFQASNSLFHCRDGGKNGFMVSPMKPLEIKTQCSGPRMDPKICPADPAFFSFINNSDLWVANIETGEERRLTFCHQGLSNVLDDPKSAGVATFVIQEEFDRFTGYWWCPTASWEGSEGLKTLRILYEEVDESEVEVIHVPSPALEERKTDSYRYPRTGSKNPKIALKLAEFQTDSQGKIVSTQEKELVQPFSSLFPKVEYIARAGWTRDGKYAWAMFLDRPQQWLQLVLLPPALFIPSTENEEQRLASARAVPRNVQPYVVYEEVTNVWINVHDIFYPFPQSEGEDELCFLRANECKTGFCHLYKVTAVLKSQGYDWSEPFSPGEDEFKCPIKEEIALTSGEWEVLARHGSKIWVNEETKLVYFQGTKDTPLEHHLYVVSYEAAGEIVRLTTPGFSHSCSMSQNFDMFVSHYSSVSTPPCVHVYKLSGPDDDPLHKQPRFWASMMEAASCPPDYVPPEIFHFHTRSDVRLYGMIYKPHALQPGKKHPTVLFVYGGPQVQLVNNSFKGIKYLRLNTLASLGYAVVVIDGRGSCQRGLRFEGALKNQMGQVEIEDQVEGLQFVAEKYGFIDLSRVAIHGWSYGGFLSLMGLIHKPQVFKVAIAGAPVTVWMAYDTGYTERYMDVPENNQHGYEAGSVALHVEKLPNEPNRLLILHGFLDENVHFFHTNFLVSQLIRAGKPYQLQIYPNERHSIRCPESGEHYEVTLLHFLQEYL

Compound: CC(=O)N[C@@H](CC(C)C)C(=O)N[C@@H](CC(C)C)C(=O)N[C@H](C=O)CCCNC(=N)N [Leupeptin]
Residual activity (% of control) DPRP-2 (DPRP-2 [1]; inhibitor 50 μg/ml): 90.4 % of control
Residual activity (% of control) DPRP-1 (DPRP-1 [2]; inhibitor 50 μg/ml): 91.1 % of control
Residual activity (% of control) DPPIV (DPPIV [3]; inhibitor 50 μg/ml): 90.7 % of control

Compound: Cc1cc(=O)oc2cc(NC(=O)[C@@H]3CCCN3C(=O)[C@H](C)N)ccc12 [Ala-Pro-AMC] (H-Ala-Pro-{AMC})
% Change in Fluorescence at 30 minutes DPRP-2 (DPRP-2 [4]): 127.5%
Km (DPRP-1 [7]): 208 µM
Km (DPRP-2 [8]): 161 µM
% Change in Fluorescence at 30 minutes DPRP-1 (DPRP-1 [5]): 239.0%
% Change in Fluorescence at 30 minutes DPPIV (DPPIV [6]): 379.0%

Compound: O=C(Nc1ccc([N+](=O)[O-])cc1)[C@@H]1CCCN1 [Pro-pNA]
% Change in Fluorescence at 30 minutes DPRP-2 (DPRP-2 [4]): −2.5%
% Change in Fluorescence at 30 minutes DPRP-1 (DPRP-1 [5]): −1%
% Change in Fluorescence at 30 minutes DPPIV (DPPIV [6]): 0.0%

Compound: Aprotinin
Residual activity (% of control) DPRP-2 (DPRP-2 [1]; inhibitor 5 μg/ml): 63.2 % of control
Residual activity (% of control) DPRP-1 (DPRP-1 [2]; inhibitor 5 μg/ml): 77.5 % of control
Residual activity (% of control) DPPIV (DPPIV [3]; inhibitor 5 μg/ml): 80.2 % of control

Compound: NCCc1ccc(S(=O)(=O)F)cc1 [AEBSF]
Residual activity (% of control) DPRP-2 (DPRP-2 [1]; inhibitor 5 mM): 23.9 % of control
Inhibition of DPRP-2 (in words) (DPRP-2 [1]; [9]): strong inhibition
Residual activity (% of control) DPRP-1 (DPRP-1 [2]; inhibitor 5 mM): 29.6 % of control
Inhibition of DPRP-1 (in words) (DPRP-1 [2]; [9]): strong inhibition
Residual activity (% of control) DPPIV (DPPIV [3]; inhibitor 5 mM): 21.1 % of control
Inhibition of DPPIV (in words) (DPPIV [3]; [9]): strong inhibition

Compound: CC(C)CC(=O)N[C@H](C(=O)N[C@H](C(=O)N[C@@H](CC(C)C)[C@@H](O)CC(=O)N[C@@H](C)C(=O)N[C@@H](CC(C)C)[C@@H](O)CC(=O)O)C(C)C)C(C)C [Pepstatin] (Isovaleryl-VV[Sta]A[Sta]-OH)
Residual activity (% of control) DPRP-2 (DPRP-2 [1]; inhibitor 2 μg/ml): 95.0 % of control
Residual activity (% of control) DPRP-1 (DPRP-1 [2]; inhibitor 2 μg/ml): 97.3 % of control
Residual activity (% of control) DPPIV (DPPIV [3]; inhibitor 2 μg/ml): 93.5 % of control

Compound: NCC(=O)N[C@@H](CCCN=C(N)N)C(=O)Nc1ccc([N+](=O)[O-])cc1 [Gly-Arg-pNA] (H-Gly-Arg-pNA)
% Change in Fluorescence at 30 minutes DPRP-2 (DPRP-2 [4]): −0.5%
% Change in Fluorescence at 30 minutes DPRP-1 (DPRP-1 [5]): −4.5%
% Change in Fluorescence at 30 minutes DPPIV (DPPIV [6]): 0.0%

Now from value to compound:

Residual activity (% of control) DPRP-2 (DPRP-2 [1]; inhibitor 2 mM): 86.0 % of control
Residual activity (% of control) DPRP-1 (DPRP-1 [2]; inhibitor 2 mM): 91.5 % of control
Residual activity (% of control) DPPIV (DPPIV [3]; inhibitor 2 mM): 93.5 % of control
Compound: O=C(O)CN(CCN(CC(=O)O)CC(=O)O)CC(=O)O [EDTA]

% Change in Fluorescence at 30 minutes DPRP-2 (DPRP-2 [4]): 205.0%
% Change in Fluorescence at 30 minutes DPRP-1 (DPRP-1 [5]): 341.5%
% Change in Fluorescence at 30 minutes DPPIV (DPPIV [6]): 444.0%
Compound: Cc1cc(=O)oc2cc(NC(=O)[C@@H]3CCCN3C(=O)CN)ccc12 [Gly-Pro-AMC] (H-Gly-Pro-{AMC})

% Change in Fluorescence at 30 minutes DPRP-2 (DPRP-2 [4]): 44.0%
% Change in Fluorescence at 30 minutes DPRP-1 (DPRP-1 [5]): 45.5%
% Change in Fluorescence at 30 minutes DPPIV (DPPIV [6]): 29.5%
Compound: C[C@H](N)C(=O)N1CCC[C@H]1C(=O)Nc1ccc([N+](=O)[O-])cc1 [Ala-Pro-pNA] (H-Ala-Pro-pNA)

Residual activity (% of control) DPRP-2 (DPRP-2 [1]; inhibitor 2 mM): 94.8 % of control
Residual activity (% of control) DPRP-1 (DPRP-1 [2]; inhibitor 2 mM): 100.1 % of control
Residual activity (% of control) DPPIV (DPPIV [3]; inhibitor 2 mM): 98.3 % of control
Compound: O[C@@H](CS)[C@@H](O)CS [DTT]

% Change in Fluorescence at 30 minutes DPRP-2 (DPRP-2 [4]): 0.5%
% Change in Fluorescence at 30 minutes DPRP-1 (DPRP-1 [5]): 2.5%
% Change in Fluorescence at 30 minutes DPPIV (DPPIV [6]): 0.5%
Compound: C[C@H](NC(=O)[C@@H](N)CCCCN)C(=O)Nc1ccc([N+](=O)[O-])cc1 [Lys-Ala-pNA] (H-Lys-Ala-pNA)

Residual activity (% of control) DPRP-2 (DPRP-2 [1]; inhibitor 100 mM): 84.0 % of control
Residual activity (% of control) DPRP-1 (DPRP-1 [2]; inhibitor 100 mM): 93.2 % of control
Residual activity (% of control) DPPIV (DPPIV [3]; inhibitor 100 mM): 98.0 % of control
Compound: OCCS [B-Mercaptoethonal]

% Change in Fluorescence at 30 minutes DPRP-2 (DPRP-2 [4]): −0.5%
% Change in Fluorescence at 30 minutes DPRP-1 (DPRP-1 [5]): −4%
% Change in Fluorescence at 30 minutes DPPIV (DPPIV [6]): 2.0%
Compound: C[C@H](N)C(=O)N[C@@H](Cc1ccccc1)C(=O)N1CCC[C@H]1C(=O)Nc1ccc([N+](=O)[O-])cc1 [Ala-Phe-Pro-pNA] (H-Ala-Phe-Pro-pNA)
